Reference: US20250304973A1, “HIGH-AFFINITY THROMBIN APTAMERS AND METHODS OF USE” (Ayass Bioscience LLC, priority 2024, published 2025)

How the values were obtained:
Assay type in all cases: biochemical
Factor II activity = target: T1, Factor II activity (Homo sapiens, UniProt P00734); experiment: Dose-dependent Factor II activity in whole blood; conditions: 1, 2, 3, 4 uM; 2 h room temperature; citrated whole human blood
T1 construct: tissue Rockland Immunochemicals, Inc R214-0050; host or cells: human citrated plasma / whole blood
Method: 138. […] Factor II activity was measured using human plasma immunodepleted of Factor II for the quantitative determination of Factor II activity in citrated plasma based on the prothrombin time (PT) assay, for which an ACLTOP coagulation analyzer manufactured by Instrumentation Laboratory (Bedford, MA, USA) was used. To evaluate the dose-dependent activity of the aptamers in whole blood, human blood samples were collected in citrate-treated tubes. Subsequently, the blood samples were incubated at room temperature for 2 h in both the absence and presence of various concentrations of thrombin aptamers. To measure the Factor II activity using the ACLTOP coagulation analyzer, plasma was separated from the cells by centrifugation at 1500×g for 10 min at 4° C. For the dose-dependent study, concentrations of 1 uM, 2 uM, 3 uM, and 4 uM of AYA1809002 and AYA1809004 were utilized.
156. To facilitate future applications, gaining a comprehensive understanding of the activity of aptamers in whole blood is of paramount importance. To assess their effectiveness, we tested the selected aptamers at various concentrations in whole blood to evaluate their impact on Factor II activity and PT time. Human blood samples were collected in citrate- treated tubes. The blood samples were then incubated at room temperature for 2 h in the absence or presence of varying concentrations of thrombin aptamers. […]

human citrated plasma = experiment: Prothrombin time (PT) assay in human citrated plasma; conditions: 2 uM, 2 h, versus untreated control
Method: Plasma was prepared by centrifugation for 10 min at 2000×g. In vitro activity assays were performed on ACLTOP analyzer manufactured by Instrumentation Laboratory, which is a type of coagulation analyzer commonly used in clinical laboratories to measure clotting times and assess coagulation parameters. The ACLTOP analyzer is designed to perform a wide range of coagulation tests, including Factor II activity, prothrombin time (PT), activated partial thromboplastin time (APTT), fibrinogen, and other related assays. ACLTOP analyzer uses HemosIL reagents developed by Instrumentation Laboratory company (Bedford, MA, USA) to perform coagulation tests.
PT time was measured using RecombiPlasTin 2G for quantitative determination in human citrated plasma of PT and Fibrinogen on an ACLTOP coagulation analyzer manufactured by Instrumentation Laboratory (Bedford, MA, USA). To assess the activity of the aptamers in a dose-dependent manner in whole blood, human blood samples were collected in citrate-treated tubes. The blood samples were then incubated at room temperature for 2 h in the absence or presence of varying concentrations of the thrombin aptamers. To measure the Prothrombin Time (PT) on the ACLTOP coagulation analyzer, plasma was obtained by centrifuging the samples at 1500×g for 10 min at 4° C. For the dose dependence study, concentrations of 1 uM, 2 uM, 3 uM, and 4 uM of AYA1809002 and AYA1809004 were utilized.
Modified aptamers chemically crosslinked with TAG, PEG, and cholesterol entities at the 3′ end, were purchased from IDT (Integrated DNA Technologies, Coralville, IA, USA). The impact of modified AYA1809002 and AYA1809004 aptamers on Factor II activity, PT, and APTT was evaluated using the same protocol as was used for the unmodified aptamers. Additionally, the potential for reversal was investigated using the respective reverse complement for each aptamer.

thrombin = thrombin (Homo sapiens, UniProt P00734); experiment: Direct thrombin activity inhibition (Thrombin Inhibitor Screening Assay Kit, fluorometric); parameters: a thrombin enzyme mixture was added to each sample and control well; purchased Abcam ab197007; conditions: different aptamer concentrations; AMC substrate, 360/460 nm, 45 min, 37° C.
Method: 141. A Thrombin Inhibitor Screening Assay Kit (fluorometric) (Abcam, cat #ab197007, Waltham, Boston, MA, USA) was employed to test the direct binding ability and inhibitory potential of the AYA1809002 and AYA1809004 aptamers against thrombin. The procedure was carried out following the standard protocol provided with the kit. […] Subsequently, a thrombin enzyme mixture was added to each sample and control well. Following an incubation period of 20 min, a substrate mixture was introduced into each sample and control well. Fluorescence measurements were taken using a SYNERGY/HTX multi-mode reader (BioTek, Agilent Technologies, Santa Clara, CA 95051, USA) with the excitation/emission wavelengths set at 360/460 nm. The measurements were recorded for 45 min at a temperature of 37° C. while ensuring protection from light.
155. The direct binding and inhibitory capabilities of AYA1809002 and AYA1809004 ap- tamers on thrombin were evaluated using a Thrombin Inhibitor Screening Assay Kit (fluorometric). The procedure was carried out following the standard protocol provided with the kit. […] The fluorescence intensity is then measured over time to assess the thrombin inhibitory potential of the sample. […] The released AMC is detectable through fluorescence measurement at an excitation/emission wavelength of 360/460 nm.

Substance | effect on Factor II activity in whole blood (Factor II activity) | increase in PT time (human citrated plasma) | inhibition of thrombin activity (thrombin)
AYA1809002: ssDNA thrombin aptamer GCGGTGTTGCTGGGGTTGGGAGGTTGGAGGAAGCAATCGC | dose-dependent decrease in Factor II activity | three-fold increases | dose-dependent inhibition of thrombin activity
AYA1809004: ssDNA thrombin aptamer TCGTCAAGGTACGGTTGGGGGGGTGGGTGTTGACGTTGAA (DNA, backbone not given here) | dose-dependent decrease in Factor II activity | three-fold increases | dose-dependent inhibition of thrombin activity
